pIC50: −log10 of the molar value. Where two headings read alike, the source gives them in different places.
Assays:
Notum(81-451 Cys330Ser) = molecular target: T1, Notum(81-451 Cys330Ser) (Homo sapiens, UniProt Q6P988, C330S); test: Notum OPTS fluorescence inhibition assay
T1 sequence (Q6P988 81-451 C330S): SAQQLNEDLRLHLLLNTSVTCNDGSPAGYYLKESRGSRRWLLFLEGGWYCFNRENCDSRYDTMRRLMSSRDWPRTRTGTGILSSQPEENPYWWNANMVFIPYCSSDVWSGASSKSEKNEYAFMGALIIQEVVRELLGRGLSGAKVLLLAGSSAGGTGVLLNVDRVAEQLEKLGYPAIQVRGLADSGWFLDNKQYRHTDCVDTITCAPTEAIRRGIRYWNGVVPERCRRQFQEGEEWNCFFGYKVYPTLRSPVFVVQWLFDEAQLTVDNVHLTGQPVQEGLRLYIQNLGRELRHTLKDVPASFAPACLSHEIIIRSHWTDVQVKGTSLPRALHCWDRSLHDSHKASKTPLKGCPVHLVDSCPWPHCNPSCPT

MDCK-MDR1 monolayer = MDCK-MDR1 monolayer permeability / P-gp efflux; assay type: in vitro ADME; conditions: for efflux ratio: Table S4; for MDCK-mdr1 AB / MDCK-mdr1 BA / MDCK-mdr1 ER: csv file; for MDCK-mdr1 AB: AB direction; for MDCK-mdr1 BA: BA direction
P-gp (MDR1) = test: MDCK-MDR1 monolayer permeability / P-gp efflux; assay type: in vitro ADME; conditions: dog; for Papp: MDCK-MDR1, Table S4; for efflux ratio: MDCK-MDR1, csv file, read-out: MDCK-mdr1 ER; for MDCK-MDR1 AB Papp: Table S4
[1] = Metabolic stability in mouse liver microsomes (MLM); assay type: in vitro ADME
[2] = Mouse pharmacokinetics, plasma and brain, oral dose; assay type: in vivo, CD1 mouse; conditions: p.o. 10 mg/kg
Text: The route of administration and dose were selected to most closely match relevant published mouse disease model studies. […] Table S1: Study design summary S8 (1 picture or pasted object on this page, not shown here)

[3] = AB direction, read-out: MDCK-MDR1 AB Papp
[4] = BA direction, read-out: MDCK-MDR1 BA Papp
[5] = Table S4, mouse liver microsomes

pIC50 (Notum(81-451 Cys330Ser)) | efflux ratio (MDCK-MDR1 monolayer) | MDCK-mdr1 AB (MDCK-MDR1 monolayer) [x10–6 cm/s] | MDCK-mdr1 BA (MDCK-MDR1 monolayer) [x10–6 cm/s] | Papp (P-gp (MDR1); [3]) [×10⁻⁶ cm/s] | Papp (P-gp (MDR1); [4]) [×10⁻⁶ cm/s] | MLM Cli [1, 5] [µL/min/mg] | MLM Cli ([1]; csv file) [µL/min/mg] | Structure (SMILES) | also measured
7.04 |  |  |  |  |  |  |  | O=C(CSc1ncnc2c(C3CC3)c(Cl)sc12)N1CCCCC1 [Compound 17b] | 
8.15 | 8.2 | 7.9 | 65 | 7.9 | 65 | 24 | 24 | O=C1CN(C(=O)CSc2ncnc3c(C4CC4)c(Cl)sc23)CCN1 [Compound 17i] | MDCK-mdr1 ER (MDCK-MDR1 monolayer): 8.2
7.74 | 0.95 | 40 | 38 | 40 | 38 | > 500 | > 500 | O=C(CSc1ncnc2c(C3CC3)c(Cl)sc12)N1CCOCC1 [Compound 17c] | MDCK-mdr1 ER (MDCK-MDR1 monolayer): 0.95
8.34 |  |  |  |  |  |  |  | O=C(CSc1ncnc2c(C3CC3)c(Cl)sc12)N1CCc2ncccc2C1 [Compound 17l] | 
7.44 |  |  |  |  |  |  |  | O=C1CN(C(=O)CSc2ncnc3c(C4CC4)c(Cl)sc23)CCCN1 [Compound 17j] | 
8.60 | 3.4 | 9 | 31 | 9 | 31 | 49 | 49 | O=C(CSc1ncnc2c(C3CC3)c(Cl)sc12)N1CCn2cncc2C1 [Compound 17n] | efflux ratio (P-gp (MDR1)): 3.4
8.10 | 2.8 | 12 | 34 | 12 | 34 | 190 | 190 | O=C(CSc1ncnc2c(C3CC3)c(Cl)sc12)N1CCn2c(nnc2C(F)(F)F)C1 [Compound 17q] | efflux ratio (P-gp (MDR1)): 2.8
8.00 |  |  |  |  |  | > 500 | > 500 | O=C(CSc1ncnc2c(C3CC3)c(Cl)sc12)N1CC2COCC2C1 (stereo not shown) [Compound 17e] | 

More lines, now with the values behind:

Structure (SMILES) | pIC50 (Notum(81-451 Cys330Ser)) | efflux ratio (MDCK-MDR1 monolayer) | MDCK-mdr1 AB (MDCK-MDR1 monolayer) [x10–6 cm/s] | MDCK-mdr1 BA (MDCK-MDR1 monolayer) [x10–6 cm/s] | Papp (P-gp (MDR1); [3]) [×10⁻⁶ cm/s] | Papp (P-gp (MDR1); [4]) [×10⁻⁶ cm/s] | MLM Cli [1, 5] [µL/min/mg] | MLM Cli ([1]; csv file) [µL/min/mg] | also measured
O=C(CSc1ncnc2c(C3CC3)c(Cl)sc12)N1CCc2[nH]cnc2C1 [Compound 17o] | 8.64 |  |  |  |  |  |  |  | 
O=C(CSc1ncnc2c(C3CC3)c(Cl)sc12)N1CCn2ccnc2C1 [Compound 17m] | 8.57 | 1.2 | 21 | 25 | 21 | 25 | 290 | 290 | efflux ratio (P-gp (MDR1)): 1.2
O=C1CN(C(=O)CSc2ncnc3c(C4CC4)c(Cl)sc23)CN1 [Compound 17g] | 8.82 | 3.7 | 3.8 | 14 |  | 14 | 19 | 19 | MDCK-mdr1 ER (MDCK-MDR1 monolayer): 3.7; MDCK-MDR1 AB Papp (P-gp (MDR1); AB direction): 3.8 ×10⁻⁶ cm/s
O=C(CSc1ncnc2c(C3CC3)c(Cl)sc12)N1CCn2cnnc2C1 [Compound 17p] | 8.92 | 98 | 0.95 | 93 |  | 93 | 29 | 29 | MDCK-mdr1 ER (MDCK-MDR1 monolayer): 98; MDCK-MDR1 AB Papp (P-gp (MDR1); AB direction): 0.95 ×10⁻⁶ cm/s
O=C1CCN(C(=O)CSc2ncnc3c(C4CC4)c(Cl)sc23)CCN1 [Compound 17k] | 7.31 |  |  |  |  |  |  |  | 
O=C(O)CSc1ncnc2c(C3CC3)c(Cl)sc12 [Compound 1] |  |  |  |  |  |  | 1e+06 |  | Cmax ([2]; CD1, po, brain): 500 ng/g; Tmax ([2]; CD1, po, brain): 2 h; half-life ([2]; CD1, po, brain): 7.1 h; AUC(0-inf) ([2]; CD1, po, plasma): 354 µg·h/mL; AUC(0-t) ([2]; CD1, po, plasma): 303 µg·h/mL; Cmax ([2]; CD1, po, plasma): 35400 ng/mL; Tmax ([2]; CD1, po, plasma): 2 h; half-life ([2]; CD1, po, plasma): 8.8 h; AUC0→t ([2]; brain): 3,700 h·ng/g; AUC0→∞ ([2]; brain): 4,080 h·ng/g; Cli in mouse liver microsomes (MLM) [1]: 1.0 μL/min/mg protein
O=C(CSc1ncnc2c(C3CC3)c(Cl)sc12)N1CCS(=O)(=O)CC1 [Compound 17d] | 7.32 |  |  |  |  |  |  |  | 
O=C(CSc1ncnc2c(C3CC3)c(Cl)sc12)N1CCn2nncc2C1 [Compound 17r] | 8.62 | 1.1 | 26 | 28 | 26 | 28 | 110 | 110 | efflux ratio (P-gp (MDR1)): 1.1
CN1CN(C(=O)CSc2ncnc3c(C4CC4)c(Cl)sc23)CC1=O [Compound 17h] | 8.82 | 2.2 | 6 | 13 | 6 | 13 | 45 | 45 | efflux ratio (P-gp (MDR1)): 2.2
O=C(CSc1ncnc2c(C3CC3)c(Cl)sc12)N1CC2(COC2)C1 [Compound 17f] | 8.00 |  |  |  |  |  | 100 | 100 | 
CN(C)C(=O)CSc1ncnc2c(C3CC3)c(Cl)sc12 [Compound 17a] | 8.12 |  |  |  |  |  |  |  | 
